Experimental data published in US11518763B2 (SCOHIA PHARMA, INC., priority 2018, dated 2022).

Each compound was assayed against T1, binding between NRF2 and KEAP1 (biotinylated human KEAP1 protein (Kelch domain), TAMRA-labeled NRF2 peptide) (Homo sapiens, UniProt Q14145) (assay: Measurement of activity of inhibiting NRF2 binding (NRF2-KEAP1 TR-FRET)). Conditions: inhibition rate relative to control at 100 nM test compound; TR-FRET; 60 min at room temperature.
T1 construct: biotinylated human KEAP1 protein (Kelch domain); biotin (biotinylated)
Procedure: Test Example 1: Measurement of Activity of Inhibiting NRF2 Binding
The inhibitory activity of test compounds against the binding between NRF2 and KEAP1 was measured by Time Resolved Fluorescence Resonance Energy Transfer (TR-FRET) method. Into a 384 well plate, 2 μL of a compound, 2 μL of 2 nM solution of biotinylated human KEAP1 protein (Kelch domain), 2 μL of 14 nM solution of TAMRA-labeled NRF2 peptide (TAMRA-Abu(4)-VWYTDIRMRDWM-OH), and 2 μL of 2 nM solution of Tb-labeled streptavidin, all solutions diluted with assay buffer (25 mM HEPES, pH7.5, 150 mM NaCl, 0.01% Tween-20), were added. For some wells, the KEAP1 protein was not added to define control wells. The plate was incubated at room temperature for 60 minutes, and time-resolved fluorescence was measured with a plate reader Envision (manufactured by PerkinElmer). The inhibitory activity for each compound at a compound concentration of 100 nM were calculated as a relative activity value by setting the fluorescence intensity of control wells to which the KEAP1 protein was not added as 100% inhibition, and the fluorescence intensity of wells to which no compound was added as 0%.
The measurement results according to the method described above (inhibition rate of signal value relative to control at 100 nM of test compound) are shown in Table 3.

T1 sequence (Q14145 321-609 limits assumed): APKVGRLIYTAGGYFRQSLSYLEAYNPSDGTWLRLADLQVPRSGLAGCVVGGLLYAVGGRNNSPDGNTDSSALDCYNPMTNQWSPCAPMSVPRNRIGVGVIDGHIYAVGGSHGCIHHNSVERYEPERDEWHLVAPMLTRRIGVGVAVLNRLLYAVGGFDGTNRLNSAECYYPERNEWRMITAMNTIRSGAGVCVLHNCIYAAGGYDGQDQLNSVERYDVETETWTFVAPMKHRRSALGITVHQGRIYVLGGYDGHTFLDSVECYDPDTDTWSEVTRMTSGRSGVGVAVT

NRF2 binding inhibitory activity (at 100 nM)	Compound
100%	Cc1cc2cc(C)c1C(=O)N1CCc3ccc(cc3C1)C(C(C)(C)C(=O)O)c1ccc3c(nnn3CCCOC2)c1C (stereo not drawn) [Example 59, 2-methyl-2-[18,30,32-trimethyl-20-oxo-14-oxa-8,9,10,21-tetrazahexacyclo[19.5.3.2^16,19.1^3,7.0^6,10.0^24,28]dotriaconta-1(27),3(32),4,6,8,16(31),17,19(30),24(28),25-decaen-2-yl]propanoic acid]

Same assay, conditions: inhibition rate relative to control at 100 nM test compound; TR-FRET; 60 min at room temperature; 0.1 µM

NRF2 binding inhibitory activity (at 100 nM)	Compound
93%	Cc1cc2cc(C)c1C(=O)N1CCc3ccc(cc3C1)C(CC(=O)O)c1ccc3c(nnn3CCCOC2)c1C (stereo not drawn) [Example 68, [18,30,32-trimethyl-20-oxo-14-oxa-8,9,10,21-tetrazahexacyclo[19.5.3.2^16,19.1^3,7.0^6,10.0^24,28]dotriaconta-1(27),3(32),4,6,8,16,18,24(28),25,30-decaen-2-yl]acetic acid]
46%	Cc1c2ccc3c1nnn3CCCCCc1ccc(cc1)C(=O)N1CCc3ccc(cc3C1)C2C(C)(C)C(=O)O (stereo not drawn) [Example 63, 2-methyl-2-[32-methyl-20-oxo-8,9,10,21-tetrazahexacyclo [19.5.3.2^16,19.1^3,7.0^6,10.0^24,28]dotriaconta-1(27),3(32),4,6,8,16(31),17,19(30),24(28),25-decaen-2-yl]propanoic acid]
99%	Cc1c2ccc3c1nnn3CCCOCc1cc(Cl)c(c(Cl)c1)C(=O)N1CCc3ccc(cc3C1)C2C(C)(C)C(=O)O (stereo not drawn) [Example 61, 2-[18,30-dichloro-32-methyl-20-oxo-14-oxa-8,9,10,21-tetrazahexacyclo[19.5.3.2^16,19.1^3,7.0^6,10.0^24,28]dotriaconta-1(27),3(32),4,6,8,16,18,24(28),25,30-decaen-2-yl]-2-methylpropanoic acid]

Same assay, conditions: inhibition rate relative to control at 100 nM test compound; TR-FRET; 60 min at room temperature; read-out: NRF2 binding inhibitory activity (at 100 nM)

Compound	inhibition at 0.1 µM
Cc1c2ccc3c1nnn3CCCCCc1cc(Cl)c(c(Cl)c1)C(=O)N1CCc3ccc(cc3C1)C2C(C)(C)C(=O)O (racemic) [Example 57, 2-[18,30-dichloro-32-methyl-20-oxo-8,9,10,21-tetrazahexacyclo[19.5.3.2^16,19.1^3,7.0^6,10.0^24,28]dotriaconta-1(26),3(32),4,6,8,16,18,24,27,30-decaen-2-yl]-2-methylpropanoic acid]	100%
Cc1oc(=O)oc1COC(=O)CC1c2ccc3c(c2)CN(CC3)C(=O)c2ccc(cc2)CCCCCn2nnc3c(C)c1ccc32 (stereo not drawn) [Example 35, (5-Methyl-2-oxo-2H-1,3-dioxol-4-yl)methyl [32-methyl-20-oxo-8,9,10,21-tetraazahexacyclo[19.5.3.2^16,19.1^3,7.0^6,10.0^24,28]dotriaconta-1(26),3(32),4,6,8,16,18,24,27,30-decaen-2-yl]acetate]	99%
Cc1ccc(NC(=O)CC2c3ccc4c(c3)CN(CC4)C(=O)c3ccc(cc3)COCCCn3nnc4c(C)c2ccc43)cn1 (stereo not drawn) [Example 42]	60%
Cc1c2ccc3c1nnn3CCCOCc1ccc(cc1)C(=O)N1CCc3ccc(cc3C1)C2CC(=O)O (racemic) [Example 16, [32-Methyl-20-oxo-14-oxa-8,9,10,21-tetraazahexacyclo[19.5.3.2^16,19.1^3,7.0^6,10.0^24,28]dotriaconta-1(26),3(32),4,6,8,16,18,24,27,30-decaen-2-yl]acetic acid]	100%
Cc1ccc(NC(=O)CC2c3ccc4c(c3)CN(CC4)C(=O)c3ccc(cc3)CCCCCn3nnc4c(C)c2ccc43)cn1 (stereo not drawn) [Example 38, 2-[32-Methyl-20-oxo-8,9,10,21-tetraazahexacyclo[19.5.3.2^16,19.1^3,7.0^6,10.0^24,28]dotriaconta-1(26),3(32),4,6,8,16,18,24,27,30-decaen-2-yl]-N-(6-methylpyridin-3-yl)acetamide]	79%

The next lines start with the values.

inhibition at 0.1 µM	Compound
100%	Cc1c2ccc3c1nnn3CCCOCc1ccc(c(Cl)c1)C(=O)N1CCc3ccc(cc3C1)C2CC(=O)O (racemic) [Example 24, [18-Chloro-32-methyl-20-oxo-14-oxa-8,9,10,21-tetraazahexacyclo[19.5.3.2^16,19.1^3,7.0^6,10.0^24,28]dotriaconta-1(26),3(32),4,6,8,16,18,24,27,30-decaen-2-yl]acetic acid]
100%	Cc1c2ccc3c1nnn3CCCOCc1ccc(c(C(F)(F)F)c1)C(=O)N1CCc3ccc(cc3C1)C2CC(=O)O (racemic) [Example 23, [32-Methyl-20-oxo-18-(trifluoromethyl)-14-oxa-8,9,10,21-tetraazahexacyclo[19.5.3.2^16-19.1^3,7.0^6,10.0^24,28]dotriaconta-1(26),3(32),4,6,8,16,18,24,27,30-decaen-2-yl]acetic acid]
100%	Cc1c2ccc3c1nnn3CCCCCCc1ccc(cc1)C(=O)N1CCc3ccc(cc3C1)C2CC(=O)O (racemic) [Example 15, [33-Methyl-21-oxo-8,9,10,22-tetraazahexacyclo[20.5.3.2^17,20.1^3,7.0^6,10.0^25,29]tritriaconta-1(27),3(33),4,6,8,17,19,25,28,31-decaen-2-yl]acetic acid]
100%	Cc1c2ccc3c1nnn3CCCCOc1ccc(c(F)c1)C(=O)N1CCc3ccc(cc3C1)C2CC(=O)O (racemic) [Example 31, [18-Fluoro-32-methyl-20-oxo-15-oxa-8,9,10,21-tetraazahexacyclo[19.5.3.2^16,19.1^3,7.0^6,10.0^24,28]dotriaconta-1(26),3(32),4,6,8,16,18,24,27,30-decaen-2-yl]acetic acid]
100%	Cc1c2ccc3c1nnn3CCCCOc1cc(F)c(c(F)c1)C(=O)N1CCc3ccc(cc3C1)C2CC(=O)O (racemic) [Example 32, [18,30-Difluoro-32-methyl-20-oxo-15-oxa-8,9,10,21-tetraazahexacyclo[19.5.3.2^16,19.1^3,7.0^6,10.0^24,28]dotriaconta-1(26),3(32),4,6,8,16,18,24,27,30-decaen-2-yl]acetic acid]
100%	Cc1c2ccc3c1nnn3CCCCOc1ccc(c3c1OC(C)(C)C3)C(=O)N1CCc3ccc(cc3C1)C2CC(=O)O (racemic) [Example 33, [6,6,33-Trimethyl-2-oxo-7,10-dioxa-1,15,16,17-tetraazaheptacyclo[22.5.3.2^3.9.1^18,22.0^4,8.0^15,19.0^27,31]pentatriaconta-3,8,16,18(33),19,21,24,26,31,34-decaen-23-yl]acetic acid]
100%	Cc1c2ccc3c1nnn3CCCCCc1ccc(c3c1CC(C)(C)O3)C(=O)N1CCc3ccc(cc3C1)C2CC(=O)O (racemic) [Example 8, [6,6,33-Trimethyl-2-oxo-5-oxa-1,15,16,17-tetraazaheptacyclo[22.5.3.2^3,9.1^18,22.0^4,8.0^15,19.0^27,31]pentatriaconta-3,8,16,18(33),19,21,24,26,31,34-decaen-23-yl]acetic acid]
100%	Cc1c2ccc3c1nnn3CCCCOc1ccc(cc1)C(=O)N1CCc3ccc(cc3C1)C2CC(=O)O (racemic) [Example 30, [32-Methyl-20-oxo-15-oxa-8,9,10,21-tetraazahexacyclo[19.5.3.2^16,19.1^3,7.0^6,10.0^24,28]dotriaconta-1(26),3(32),4,6,8,16,18,24,27,30-decaen-2-yl]acetic acid]
15%	CCOC(=O)CC1c2ccc3c(c2)CN(CC3)C(=O)c2ccc(cc2)COCCCn2nnc3c(C)c1ccc32 (stereo not drawn) [Example 36, Ethyl [32-methyl-20-oxo-14-oxa-8,9,10,21-tetraazahexacyclo[19.5.3.2^16,19.1^3,7.0^6,10.0^24,28]dotriaconta-1(26),3(32),4,6,8,16,18,24,27,30-decaen-2-yl]acetate]
